This note sets out measurements from patent publication US11242374B2, “Minimally-invasive and activity-dependent control of excitable cells” (Brown University, priority 2015, dated 2022).

Experiment [1] deals with neocortical neurons expressing eGLuc-Mac. As to the kind of experiment: action potential firing in cultured neocortical neurons expressing eGLuc-Mac. Particulars: cell expressing fusion protein containing eGLuc-Mac (hyperpolarization). In kind it is cell-based. The source says: (§1) The neurons were modified to express fusion proteins including a luminescent protein (enhanced Gaussia luciferase (eGLuc)) and either VChR1 or Mac. Successful expression of the full construct in the neocortical neurons was confirmed by observation of the fluorescence of the reporter protein (upper middle panel titled Fluorescence in FIG. 3). Ability of eGLuc to luminesce was unaffected by the inclusion of light-gated ion channel (VChR1 or Mac), as shown in the upper right panel titled Luminescence in FIG. 3).

The test system of experiment [2] is rat cortical neurons expressing LMO3. As to the kind of experiment: multi electrode array (MEA) recording and luminescence of cortical neurons expressing LMO3 (sbGLuc-VChR1). In kind it is cell-based. The source says: FIGS. 12A-12D show multi electrode arrays used in the in vitro experiments on rat cortical neurons. FIG. 12A is a schematic of the multi electrode array. FIGS. 12B and 12C are images of the electrode array. FIG. 12D is a fluorescent image of MEA culture of rat cortical neurons transduced with AAV-hSyn-LMO3, where LMO3 is a fusion of sbGLuc and VChR1. Neurons are visible in fluorescent green, because of the expression of LMO3, which includes EYFP.
FIG. 13 is a series of graphs showing the luminescence and neuronal activity of rat cortical neurons in response to contacting with coelenterazine (CTZ) or with the vehicle.
Excitable cells (rat cortical neurons) expressing a light-gated ion channel (VChR1) fused to a luminescent protein (Gaussia luciferase) were cultured on multi electrode arrays (MEA), as shown in FIGS. 12A-12D. The results are shown in FIG. 13 Under continuous recording MEA dishes were injected (see arrows) with CTZ or with vehicle. Upon injection a pronounced artifact was observed (see FIG. 13). […] In contrast, vehicle injection causes the artifact, but neuronal spiking pattern is not altered. […] Neurons in the culture express LMO3 (luminopsins 3, a fusion of sbGLuc and VChR1). Upon application of substrate (CTZ), but not of vehicle, the luciferase emits light which activates the channelrhodopsin, resulting in changed spiking activity (see before and after CTZ). […]

Experiment [3] has as its system TRN and neighboring relay nuclei (eGLuc-VChR1). As to the kind of experiment: in vivo laminar electrode recording from TRN and neighboring relay nuclei after IV CTZ. Further details: species or system mice. The note with it: ca. 150 μg CTZ IV (tail vein). The procedure:
(§2) Mice were injected with AAV2/9-hSyn-eGLuc-VChR1 into the thalamus of mice, and in vitro slice experiments were performed 7-12 days later. […] VPm expression was negligible except from TRN axons. Expressing TRN neurons were electrophysiologically normal, and strongly responsive to LED light pulses (FIGS. 5B and 5C). The short latencies and other properties of these responses indicate robust VChR1 expression. Superfusion of the luciferin CTZ (100 μM) caused ca. 1-3 mV reversible depolarization (FIGS. 5D and 5E; N=3 cells, 2 mice). […] At 20 days post viral injection, a 16-contact laminar electrode was used to record from the TRN and neighboring relay nuclei under light isoflurane anesthesia (0.5%). […] Spike shape also indicated relay neuron and not TRN identity. […] These combined effects are consistent with TRN-driven hyperpolarization of this neuron and a shift to burst mode.

Experiment [4] relates to neocortical neurons expressing eGLuc-VChR1. As to the kind of experiment: action potential firing in cultured neocortical neurons expressing eGLuc-VChR1. Particulars: cell expressing fusion protein containing eGLuc-VChR1 (depolarization). It is filed as cell-based.
Excerpt: as §1

Experiment [5] concerns neocortical neurons transfected with Gaussia luciferase. As to the kind of experiment: IVIS imaging of mouse brain expressing Gaussia luciferase after intravenous coelenterazine. In kind it is in vivo. Particulars: intravenous injection several weeks after transfection; right hemisphere. The procedure: FIG. 2 is a photograph showing an example in which neocortical neurons in the right hemisphere were transfected with a Gaussia luciferase.
Several weeks later, coelenterazine was administered intravenously to the mouse, and an image of the mouse's head was taken with IVIS® imaging system (FIG. 2).

The subject of experiment [6] is TRN neurons expressing eGLuc-VChR1. As to the kind of experiment: in vitro slice recordings of TRN neurons transduced with AAV2/9-hSyn-eGLuc-VChR1, CTZ superfusion. In kind it is cell-based, mice. As to the method: as §2

Regarding `Oc1ccc(Cc2nc3c(Cc4ccccc4)nc(-c4ccc(O)cc4)cn3c2O)cc1` [CTZ, coelenterazine], the “spontaneous action potential firing” value in experiment [1] is recorded as “suppression of spontaneous action potential firing”. For the same compound, the “neuronal spiking pattern on MEA” value in experiment [2] (CTZ injected into MEA dishes, vehicle does not alter pattern) is recorded as “desynchronized spiking”. Moreover, in experiment [2] (contacting with CTZ vs vehicle), the luminescence of neurons result was “results in luminescence”. Moreover, in experiment [3], the “burst rate in Cell 2 (events with 100 msec prior inactivity and >95 Hz spike rate)” value is on record as “increase in burst rate”; the “firing rate in other cells (Cell 2, relay neuron)” value is given as “decreases in firing rate”. The “firing in multi-unit activity and well-isolated single neurons (Cell 1)” value in experiment [3] (putative TRN, 20 days post viral injection, isoflurane 0.5%) is reported as “firing increased”. Besides, in experiment [4], the “spontaneous action potential firing” value was “increase in spontaneous action potential firing”. For the same compound, in experiment [5], the “bioluminescence emission through the scalp” value is recorded as “emitted brightly”. Moreover, the “onset of stimulus-evoked spike bursts” value in experiment [6] (CTZ-evoked depolarization vs control) was “delaying onset of stimulus-evoked spike bursts”. In addition, the reversible depolarization in experiment [6] (superfusion of CTZ 100 μM, N=3 cells, 2 mice) is given as 1-3 mV.
